Laboratory results taken from US20060062758A1, “Tight junction modulator peptide PN159 for enhanced mucosal delivery of therapeutic compounds” (Nastech Pharmaceutical Comapny Inc., priority 2004, published 2006).
Non-standard residues stand in square brackets, D forms with d. No end group written: not given here.

What was measured:
[1] = test system: EpiAirway™ Cell Membrane (mucosal epithelial cell layer); assay: Transepithelial electrical resistance (TER), EpiAirway in vitro epithelial tissue model; type: cell-based; conditions: for Relative TER Decrease: Table 8, amino acid substitutions; for Relative TER Decrease / TER(x)/TER(159) +/− SEM* / TER(x)/TER(159) +/− SEM: relative to PN159; for TER(x)/TER(159) +/− SEM*: mean values from multiple repeats; for TER(x)/TER(159) +/− SEM: Table 6, D-amino acid substitutions
Source text: One “kit” consists of 24 units.
A. Respiratory airway epithelial cells form tight junctions in vivo as well as in vitro, and thereby restrict the flow of solutes across the tissue. These junctions confer a transepithelial resistance of several hundred ohms×cm^2 in excised airway tissues. In the MatTek EpiAirway™ units, the transepithelial electrical resistance (TER) is reported by the manufacturer to be routinely around 1000 ohms×cm^2. […] The porous membrane-bottomed units without cells, conversely, provide only minimal transmembrane resistance (approximately 5-20 ohms×cm^2).
B. Accurate determinations of TER require that the electrodes of the ohmmeter be positioned over a significant surface area above and below the membrane, and that the distance of the electrodes from the membrane be reproducibly controlled. The method for TER determination recommended by MatTek and employed for all experiments herein employs an “EVOM”™ epithelial voltohmmeter and an “ENDOHM”™ tissue resistance measurement chamber from World Precision Instruments, Inc., Sarasota, Fla.
D. Determinations of TER are made with 1.5 mL of PBS in the chamber and 350 μL of PBS in the membrane-bottomed unit being measured. The top electrode is adjusted to a position just above the membrane of a unit containing no cells (but containing 350 μL of PBS) and then fixed to ensure reproducible positioning. The resistance of a cell-free unit is typically 5-20 ohms×cm^2 (“background resistance”).
G. The unit is gently blotted free of excess PBS on its exterior surface only before being placed into the chamber (containing a fresh 1.5 mL aliquot of PBS). An aliquot of 350 μL PBS is added to the unit before the top electrode is placed on the chamber and the TER is read on the EVOM meter.
I. The units are read in the following sequence: all sham-treated controls, followed by all formulation-treated samples, followed by a second TER reading of each of the sham-treated controls. All TER values are reported as a function of the surface area of the tissue.
TER was calculated as: TER=(R1−Rb)×A Where R1 is resistance of the insert with a membrane, Rb is the resistance of the blank insert, and A is the area of the membrane (0.6 cm^2). The effect of pharmaceutical formulations comprising intranasal delivery-enhancing agents, for example, permeabilizing peptides as measured by TER across the EpiAirway™ Cell Membrane (mucosal epithelial cell layer). Permeabilizing peptides are applied to the EpiAirway™ Cell Membrane at a concentration of 1.0 mM. A decrease in TER value relative to the control value (control=approximately 1000 ohms-cm^2; normalized to 100.) indicates a decrease in cell membrane resistance and an increase in mucosal epithelial cell permeability.
The formulation pH was fixed at 4.5.

[2] = test system: EpiAirway™ Cell Membrane (mucosal epithelial cell layer); assay: Permeation kinetics across the in vitro epithelial tissue model; conditions: for Perm(x)/Perm(159) +/− SEM* / Perm(x)/Perm(159) +/− SEM: relative to PN159; for Perm(x)/Perm(159) +/− SEM*: mean values from multiple repeats; for permeability enhancement (in words): PN159 analogues compared with PN159; for Perm(x)/Perm(159) +/− SEM: Table 6, D-amino acid substitutions
Protocol: The EpiAirway™ system was developed by MatTek Corp (Ashland, Mass.) as a model of the pseudostratified epithelium lining the respiratory tract. The epithelial cells are grown on porous membrane-bottomed cell culture inserts at an air-liquid interface, which results in differentiation of the cells to a highly polarized morphology. The apical surface is ciliated with a microvillous ultrastructure and the epithelium produces mucus (the presence of mucin has been confirmed by immunoblotting). The inserts have a diameter of 0.875 cm, providing a surface area of 0.6 cm^2. The cells are plated onto the inserts at the factory approximately three weeks before shipping. One “kit” consists of 24 units.
A. A “kit” of 24 EpiAirway™ units can routinely be employed for evaluating five different formulations, each of which is applied to quadruplicate wells. Each well is employed for determination of permeation kinetics (4 time points), transepithelial electrical resistance (TER). An additional set of wells is employed as controls, which are sham treated during determination of permeation kinetics, but are otherwise handled identically to the test sample-containing units for determinations of transepithelial resistance and viability.
B. In all experiments, the mucosal delivery formulation to be studied is applied to the apical surface of each unit in a volume of 100 μL, which is sufficient to cover the entire apical surface. An appropriate volume of the test formulation at the concentration applied to the apical surface (no more than 100 μL is generally needed) is set aside for subsequent determination of concentration of the active material by ELISA or other designated assay.
D. In order to minimize potential sources of error and avoid any formation of concentration gradients, the units are transferred from one 0.9 mL-containing well to another at each time point in the study. These transfers are made at the following time points, based on a zero time at which the 100 μL volume of test material was applied to the apical surface: 15 minutes, 30 minutes, 60 minutes, and 120 minutes.
F. At the completion of each time point, the medium is removed from the well from which each unit was transferred, and aliquotted into two tubes (one tube receives 700 μL and the other 200 μL) for determination of the concentration of permeated test material and, in the event that the test material is cytotoxic, for release of the cytosolic enzyme, lactate dehydrogenase, from the epithelium. These samples are kept in the refrigerator if the assays are to be conducted within 24 hours, or the samples are subaliquotted and kept frozen at −80° C. until thawed once for assays. Repeated freeze-thaw cycles are to be avoided.
EIA kit (p/n S-1178(EIAH6101) was purchased from Peninsula Laboratories Inc. (Division of BACHEM, San Carlos, Calif., 800-922-1516). 17×120 mm polypropylene conical tubes (p/n 352097, Falcon, Franklin Lakes, N.J.) were used for all sample preparations. Eight standards were used for PTH quantitation. The rest of the assay procedure was the same as the kit inserts.
The instant study was designed to evaluate the effect of PN159 itself or in combination with additional permeation enhancers on PTH permeation. The PN159 concentrations evaluated are 25, 50, and 100 μM. The additional permeation enhancers are 45 mg/ml M-β-CD, 1 mg/ml DDPC, and 1 mg/ml EDTA. Sorbitol was used as a tonicifier (146-190 mM) to adjust the osmolarity of formulations to 220 mOsm/kg. The formulation pH was fixed at 4.5. PTH was chosen as a model peptide in this example. 2 mg/ml PTH was combined with PN159 with or without additional permeation enhancers. The combination was tested using an in vitro epithelial tissue model to monitor PTH permeation, transepithelial electrical resistance (TER), and the cytotoxicity of the formulation by LDH assay.
The effect of PN159 on permeation of MC-4RA was evaluated in this study.

Substance: H-KLALKLALKLNLKAALKLA-NH2 [PN448]
- Relative TER Decrease [1]: 0.4

Substance: NH2-KALAALLKKAAKLLAALK-amide (H-KALAALLKKAAKLLAALK-NH2) [PN442]
- TER(x)/TER(159) +/− SEM* ([1]; Table 9, hydrophobic faces): 0.93 +/− 0.03
- Perm(x)/Perm(159) +/− SEM* ([2]; Table 9, hydrophobic faces): 0.81 +/− 0.03

Substance: NH2-KALAALLKKLAKLLAALK-amide (H-KALAALLKKLAKLLAALK-NH2) [PN444]
- TER(x)/TER(159) +/− SEM* ([1]; Table 9, hydrophobic faces): 0.82 +/− 0.05
- Perm(x)/Perm(159) +/− SEM* ([2]; Table 9, hydrophobic faces): 0.41 +/− 0.08

Substance: NH2-KALKLKAALALLAKLKLA-amide (H-KALKLKAALALLAKLKLA-NH2) [PN424]
- TER(x)/TER(159) +/− SEM* ([1]; Table 9, hydrophobic faces): 0.59 +/− 0.07
- Perm(x)/Perm(159) +/− SEM* ([2]; Table 9, hydrophobic faces): 0.20 +/− 0.04

Substance: NH2-KLAAALLKKAKKLAAALL-amide (H-KLAAALLKKAKKLAAALL-NH2) [PN441]
- TER(x)/TER(159) +/− SEM* ([1]; Table 9, hydrophobic faces): 0.54 +/− 0.04
- Perm(x)/Perm(159) +/− SEM* ([2]; Table 9, hydrophobic faces): 0.35 +/− 0.04

Substance: NH2-KLALKLALKALKAA-amide (H-KLALKLALKALKAA-NH2) [PN417]
- Perm(x)/Perm(159) +/− SEM* ([2]; Example 7, length changes): 0.04

Substance: NH2-KLALKLALKALKAALK-amide (H-KLALKLALKALKAALK-NH2) [PN418]
- TER(x)/TER(159) +/− SEM* ([1]; Example 7, length changes): 1.05 +/− 0.05
- Perm(x)/Perm(159) +/− SEM* ([2]; Example 7, length changes): 0.64

Substance: NH2-KLALKLALKALKAALKLALK-amide (H-KLALKLALKALKAALKLALK-NH2) [PN419]
- TER(x)/TER(159) +/− SEM* ([1]; Example 7, length changes): 1.23 +/− 0.01
- Perm(x)/Perm(159) +/− SEM* ([2]; Example 7, length changes): 0.74

Substance: NH2-KLALKLALKALKAALKLALKLA-amide (H-KLALKLALKALKAALKLALKLA-NH2) [PN420]
- TER(x)/TER(159) +/− SEM* ([1]; Example 7, length changes): 0.77 +/− 0.05
- Perm(x)/Perm(159) +/− SEM* ([2]; Example 7, length changes): 0.24

Substance: NH2-KLALKLALKALKAALKLALKLALK-amide (H-KLALKLALKALKAALKLALKLALK-NH2) [PN421]
- TER(x)/TER(159) +/− SEM* ([1]; Example 7, length changes): 0.74 +/− 0.11
- Perm(x)/Perm(159) +/− SEM* ([2]; Example 7, length changes): 0.17

Substance: NH2-KLALKLALKALKAALKLALKLALKAL-amide (H-KLALKLALKALKAALKLALKLALKAL-NH2) [PN422]
- TER(x)/TER(159) +/− SEM* ([1]; Example 7, length changes): 0.47 +/− 0.07
- Perm(x)/Perm(159) +/− SEM* ([2]; Example 7, length changes): 0.07

Substance: NH2-KLAWKLALKALKAALKLA-amide (H-KLAWKLALKALKAALKLA-NH2) [PN0425, Single Tryptophan]
- Relative TER Decrease [1]: 1.0

Substance: NH2-KLAWKLALKALKAAWKLA-amide (H-KLAWKLALKALKAAWKLA-NH2) [PN0427, Two Tryptophan]
- Relative TER Decrease [1]: 1.0

Substance: NH2-KLAWKLAWKALKAAWKLA-amide (KLAWKLAWKALKAAWKLA-NH2) [PN028, Three Tryptophan]
- Relative TER Decrease [1]: 0.7

Substance: NH2-KLaLKlALkAlkAALkLA-amide (H-KL[dA]LK[dL]AL[dK]A[dL][dK]AAL[dK]LA-NH2) [PN434]
- TER reduction (in words) ([1]; PN159 analogues compared with PN159): null activities
- TER(x)/TER(159) +/− SEM [1]: 0.12 +/− 0.01
- permeability enhancement (in words) [2]: null activities
- Perm(x)/Perm(159) +/− SEM [2]: 0.02 +/− 0.00

Substance: NH2-LKLLKKLLKKLLKLL-amide (H-LKLLKKLLKKLLKLL-NH2) [PN406, Leucine and Lysine rich]
- Relative TER Decrease [1]: 0.9

Substance: NH2-LKTLATALTKLAKTLTTL-amide (H-LKTLATALTKLAKTLTTL-NH2) [PN443, Threonine]
- Relative TER Decrease [1]: 0.3

Substance: NH2-LKlLKkLlkKLLkLL-amide (H-LK[dL]LK[dK]L[dL][dK]KLL[dK]LL-NH2) [PN407]
- TER(x)/TER(159) +/− SEM [1]: 1.08 +/− 0.01
- Relative TER Decrease [1]: 1.1
- permeability enhancement (in words) [2]: minor but statistically significant improvement on permeability
- Perm(x)/Perm(159) +/− SEM [2]: 1.20 +/− 0.05

Substance: NH2-RLALRLALRALRAALRLA-amide (H-RLALRLALRALRAALRLA-NH2) [PN394, Argenine]
- Relative TER Decrease [1]: 0.7

Substance: NH2-RLAWRLALRALRAALRLA-amide (H-RLAWRLALRALRAALRLA-NH2) [PN395, Argenine and Single Tryptophan]
- Relative TER Decrease [1]: 0.8

Substance: NH2-alklaaklaklalklalk-amide (ALKLAAKLAKLALKLALK; all D-amino acids; C-terminal amide) [PN408]
- TER(x)/TER(159) +/− SEM [1]: 1.05 +/− 0.01
- Perm(x)/Perm(159) +/− SEM [2]: 1.16 +/− 0.07

Substance: NH2-klalklalkalkaalkla-amide (H-[dK][dL][dA][dL][dK][dL][dA][dL][dK][dA][dL][dK][dA][dA][dL][dK][dL][dA]-NH2; SMILES CC(C)C[C@@H](NC(=O)[C@H](N)CCCCN)C(=O)N[C@H](C)C(=O)N[C@H](CC(C)C)C(=O)N[C@H](CCCCN)C(=O)N[C@H](CC(C)C)C(=O)N[C@H](C)C(=O)N[C@H](CC(C)C)C(=O)N[C@H](CCCCN)C(=O)N[C@H](C)C(=O)N[C@H](CC(C)C)C(=O)N[C@H](CCCCN)C(=O)N[C@H](C)C(=O)N[C@H](C)C(=O)N[C@H](CC(C)C)C(=O)N[C@H](CCCCN)C(=O)N[C@H](CC(C)C)C(=O)N[C@H](C)C(N)=O) [PN393]
- TER(x)/TER(159) +/− SEM [1]: 1.06 +/− 0.00
- Perm(x)/Perm(159) +/− SEM [2]: 1.02 +/− 0.16
